This passage reports viability results from ChEMBL document CHEMBL5608109, “Hepatotoxicity screening of Donated Chemical Probes” (2024).

This assay relates to Hepatocyte spheroids. The assay is described as follows: This assay model using primary human hepatocyte (PHH) spheroids, which are cultured in Williams E medium. After spheroid formation, cells are exposed to compounds in an FBS-free culture medium. […] Imaging is performed on an Opera Phenix High-Content Screening System, allowing quantification of proliferation as a readout for evaluating the effects of chemical probes on hepatocyte regeneration. The class given is functional. The conditions noted are these: read-out: Cell Viability; for viability at 0.1 µM: Concentration 0.1 uM; for viability at 1 µM: Concentration 1 uM; for viability at 10 µM: Concentration 10 uM.

`O=C(O)[C@H]1[C@H](Cn2nnc3ccccc3c2=O)CC[C@@H]1C(=O)c1ccc(OCCC2CCOCC2)cc1` [BAY-7598]: the viability at 0.1 µM is on record as 96.9% (non-toxic) and the viability at 1 µM was 97.3% (non-toxic).

Regarding `O=C(N1CCS(=O)(=O)CC1)N1C[C@H](c2ccc(OC(F)(F)F)cc2)C[C@H](c2nc(C3CC3)no2)C1` [BAY-386], the viability at 1 µM is given as 121% (non-toxic) and the viability at 10 µM was 111% (non-toxic).

On to `Cn1nc(C(F)(F)F)cc1-c1cnc(N2CCc3cc(S(=O)(=O)Nc4c(F)cc(Cl)cc4F)cc(N4CCCC4=O)c32)nc1` [TP-020], for which the viability at 1 µM is recorded as 121% (non-toxic) and the viability at 10 µM is 120% (non-toxic).

`CCOC(=O)c1cc2cc(-c3cc(C(=O)NCc4ccc(C(=O)O)cc4)nn3C)ccc2[nH]1` [BI 4394]: the viability at 0.1 µM is 108% (non-toxic) and the viability at 1 µM is reported as 106% (non-toxic).

For `C[C@H](NC(=O)c1cnc2n1[C@](C)(Cc1ccc(C#N)cc1)C(=O)N2c1cc(Cl)c(F)c(Cl)c1)C(=O)NC1(c2ccccn2)CC1` [BI 1950], the viability at 1 µM is recorded as 110% (non-toxic) and the viability at 10 µM is recorded as 121% (non-toxic).

With `NC(=O)c1ccc2nc(-c3ccc(C4(N)CCC4)cc3)c(-c3ccccc3)n2n1` [BAY-1125976], the viability at 0.1 µM is 94.8% (non-toxic) and the viability at 1 µM is on record as 75.2% (non-toxic).

Take `CCS(=O)(=O)c1cc2cc(C[C@](O)(CC(C)(C)c3ccc(F)cc3C(N)=O)C(F)(F)F)[nH]c2cn1` [BI 653048]: the viability at 1 µM is on record as 116% (non-toxic) and the viability at 10 µM was 116% (non-toxic).

Turning to `Cc1c(N2CCCC2)nc2ccc(Br)cc2c1C(=O)NC[C@H](CCC(=O)O)c1ccccc1Cl` [BAY-6672], the viability at 1 µM is given as 106% (non-toxic) and the viability at 10 µM is 111% (non-toxic).

Consider `C[C@H](c1ccc(F)cc1)N(Cc1cccc(C(=O)O)c1)C(=O)c1cnc2ccccc2c1` [PF-05105679], for which the viability at 1 µM is listed as 126% (non-toxic) and the viability at 10 µM was 120% (non-toxic).

With `Cc1cc(C)c(-n2ccn3nc(-c4cccnc4)cc23)cc1NC(=O)c1cc(C#N)cc(S(F)(F)(F)(F)F)c1` [BAY-826], the viability at 0.1 µM is 149% (non-toxic) and the viability at 1 µM was 144% (non-toxic).

As to `CC[C@H](CC(=O)O)n1c(=O)c2ncccc2n(Cc2cn(C)c3cc(C)cc(C)c23)c1=O` [BI-1942], the viability at 1 µM is given as 53.2% (toxic) and the viability at 10 µM was 65.2% (toxic).

For the compound `Clc1cccc(-c2nnnn2Cc2cccnc2)c1Cl`, the viability at 1 µM was 97.1% (non-toxic) and the viability at 10 µM was 98.7% (non-toxic).

With `CNC(=O)Nc1ccc2c(c1)CC[C@@]21OC(=O)N(CC(=O)N(Cc2ccc(F)cc2)[C@@H](C)C(F)(F)F)C1=O` [A-485], the viability at 0.1 µM is reported as 102% (non-toxic) and the viability at 1 µM is recorded as 69.1% (toxic).

As for `CN1CCN(c2cnc3c(C4CCN(C(=O)c5ccc(OC(F)(F)F)cc5N)CC4)ncnc3c2)CC1` [BAY-885], the viability at 1 µM was 99.8% (non-toxic) and the viability at 10 µM is listed as 98.6% (non-toxic).

For the compound `C[C@H](c1ccnc(Nc2nc3ccc(-c4cc(N(C)C)ncn4)cc3[nH]2)c1)N1CCN(C(=O)CC(F)(F)F)CC1` [BAY-985], the viability at 1 µM is given as 68.2% (non-toxic) and the viability at 10 µM is reported as 38.1% (toxic).

`c1ccc2oc(-c3csc(C4CCN(Cc5nc6ncccc6[nH]5)CC4)n3)cc2c1`: the viability at 1 µM was 88.5% (non-toxic) and the viability at 10 µM is 35.4% (toxic).

With `Cc1cnc(-c2cc(Cl)ccc2F)cc1-n1c(=O)n(CC(N)=O)c2cnccc21` [TP-008], the viability at 1 µM is reported as 90% (non-toxic) and the viability at 10 µM is recorded as 99.1% (non-toxic).

With `CC1=C(C#N)C(c2ccc3[nH]nc(C)c3c2)C(C#N)=C(C)N1` [BAY-474], the viability at 1 µM was 99.5% (non-toxic) and the viability at 10 µM is recorded as 111% (non-toxic).

Consider `N#CN1CC[C@H](C(=O)Nc2nc3c(s2)CN(C(=O)CN=[N+]=[N-])CC3)C1` [8RK64], for which the viability at 1 µM was 97.6% (non-toxic) and the viability at 10 µM is recorded as 70.7% (toxic).

With `COc1nc2ccc([C@@](O)(c3ccccc3)C3CCN(C(C)=O)CC3)cc2c(Cl)c1Cc1ccc(-n2cccn2)cc1` [JNJ-54119936], the viability at 1 µM is reported as 116% (non-toxic) and the viability at 10 µM is listed as 114% (non-toxic).

Consider `Nc1c(C(=O)NCc2ccc(C(=O)NCCCC3CCCCC3)cc2)cnn1-c1ccccc1` [SR-318], for which the viability at 0.1 µM is recorded as 81.4% (non-toxic) and the viability at 1 µM was 89.8% (non-toxic).

As to `O=C(NCc1ncc(C(F)(F)F)cc1Cl)c1ccc2c(c1)C1(CCS(=O)(=O)CC1)[C@H](C1CC1)N2S(=O)(=O)c1ccc(F)cc1` [BAY-784], the viability at 0.1 µM is 103% (non-toxic) and the viability at 1 µM was 107% (non-toxic).

For `CNC(=O)c1cc(C(=O)NC2CC2)cn(Cc2ccccc2)c1=O` [GSK620], the viability at 1 µM is on record as 117% (non-toxic) and the viability at 10 µM is reported as 85.9% (non-toxic).

Turning to `CN(C)C(=O)Cn1cc(-c2nc([C@@](C)(c3ccc(-c4cnc(N)nc4)cc3)C3CC3)no2)cn1` [BI 665915], the viability at 0.1 µM is given as 104% (non-toxic) and the viability at 1 µM was 84.4% (non-toxic).

As for `Cn1c(C2(NC(=O)c3ccc4c(C5CCCC5)c(-c5ncc(Br)cn5)n(C)c4c3)CCC2)nc2ccc(/C=C/C(=O)O)cc21` [DELEOBUVIR], the viability at 1 µM is 135% (non-toxic) and the viability at 10 µM is reported as 157% (non-toxic).

Consider `CN(C)CC#Cc1ccc(OCCCc2sc(N3CCc4cccc(C(=O)Nc5nc6ccccc6s5)c4C3)nc2C(=O)O)c(F)c1` [A-1155463], for which the viability at 1 µM was 120% (non-toxic) and the viability at 10 µM is on record as 117% (non-toxic).

As for `C=CC(=O)Nc1ccc2[nH]c(=O)n(C3CCN(Cc4ccc(-c5nc6cc[nH]c(=O)c6cc5-c5ccccc5)cc4)CC3)c2c1` [Borussertib], the viability at 1 µM is 48.8% (toxic) and the viability at 10 µM was 16% (toxic).

`CN(C)[C@@H]1CCN(c2cc(-c3ccccc3)nc3ccnn23)C1` [(R)-ZINC-3573]: the viability at 1 µM is 111% (non-toxic) and the viability at 10 µM was 95.8% (non-toxic).

`CC(=O)Nc1c(F)cc(C(=O)N[C@H]2CC[C@H](O)CC2)cc1O[C@@H](C)c1ccccc1` [GSK046]: the viability at 1 µM was 96.7% (non-toxic) and the viability at 10 µM is reported as 85.2% (non-toxic).

Consider `CCNC(=O)c1cc2c(N3CCOCC3C)ccnc2[nH]1` (stereo not given), for which the viability at 1 µM is 90.1% (non-toxic) and the viability at 10 µM is 74.9% (non-toxic).

In the case of `CS(=O)(=O)N1CCCC(NC(=O)[C@H](CCC2CCCCC2)NC(=O)c2ccc(CNC(=O)c3cnc4ccccn34)cc2)C1` (stereo not given in full) [SR-302], the viability at 0.1 µM is reported as 134% (non-toxic) and the viability at 1 µM is on record as 128% (non-toxic).

On to `CC1CCN(c2ccnc(NCc3cn(C)cn3)n2)CC1` [TP-040], for which the viability at 1 µM was 127% (non-toxic) and the viability at 10 µM is recorded as 133% (non-toxic).

`Cc1c(NC(=O)c2cc(C(N)=O)nc3cc(F)ccc23)c(C(F)(F)F)nn1Cc1ccc(C#N)cc1` [BAY-876]: the viability at 1 µM was 91.5% (non-toxic) and the viability at 10 µM was 21.4% (toxic).

Take `CCCCN(CCCC)C(=O)CN1C[C@H](c2cc(OC)c3c(c2)OCO3)[C@@H](C(=O)O)[C@@H]1CC(C)(C)CCC`: the viability at 0.1 µM is on record as 107% (non-toxic) and the viability at 1 µM is reported as 83.6% (non-toxic).

For the compound `O[C@]1(C(F)(F)F)CCCC[C@H]1Nc1ccc(F)cc1` [BAY-390], the viability at 0.1 µM is given as 99.2% (non-toxic) and the viability at 1 µM is given as 96.9% (non-toxic).

For the compound `C[C@@H]1CN(c2cc(-c3n[nH]c4ccc(OC5(C)CC5)cc34)ncn2)C[C@H](C)O1` [MLi-2], the viability at 0.1 µM is reported as 79.3% (non-toxic) and the viability at 1 µM is 79.7% (non-toxic).

Turning to `O=C(NC[C@@H]1[C@H]2CN(C(=O)OCc3cc(C(F)(F)F)cc(C(F)(F)F)c3)C[C@@H]12)c1ccc2[nH]nnc2c1` [BI 2545], the viability at 1 µM is listed as 119% (non-toxic) and the viability at 10 µM is 76.5% (non-toxic).

For `Cc1c(NC(=O)COc2ccc(Cl)cc2C(=O)c2cc(F)cc(C(F)(F)F)c2)ccc(C(=O)O)c1F` [BI 2540], the viability at 1 µM is given as 95.6% (non-toxic) and the viability at 10 µM was 93.1% (non-toxic).

Consider `Cc1ccc2nc(CNCCCOc3ccccc3)cc(O)c2c1` [UCSF924], for which the viability at 1 µM is 164% (non-toxic) and the viability at 10 µM is reported as 147% (non-toxic).

With `CNC(=O)c1ccc(Nc2ncc(C(F)(F)F)c(NCc3nccnc3N(C)S(C)(=O)=O)n2)cc1` [DEFACTINIB], the viability at 0.1 µM was 46.1% (toxic) and the viability at 1 µM is recorded as 55.4% (toxic).

`O=C1CCc2cc(Nc3cc(OC4CCOCC4)c([N+](=O)[O-])cc3Cl)ccc2N1`: the viability at 1 µM was 147% (non-toxic) and the viability at 10 µM is 76% (non-toxic).

Consider `COCc1nc2cnc3cc(-c4c(C)noc4C)c(OC[C@H]4CCNC4)cc3c2n1[C@H](C)c1ccccc1` [GSK778], for which the viability at 1 µM is listed as 118% (non-toxic) and the viability at 10 µM is listed as 64% (toxic).

Consider `CC(C)(O)c1cncc(-c2nc3ccc(F)cc3n2C2CC2)c1` [MSD-CYP11B2], for which the viability at 1 µM is recorded as 113% (non-toxic) and the viability at 10 µM is on record as 96.6% (non-toxic).

Regarding `Cn1cncc1[C@](O)(COc1ccc(C#N)cc1-c1ccc(OC(F)(F)F)cc1)c1ccc(C#N)cc1`, the viability at 1 µM is recorded as 112% (non-toxic) and the viability at 10 µM is reported as 113% (non-toxic).

For `CC1=CC(C)=[N+]2C1=C(CCCCc1cn(CC(=O)N3CCc4nc(NC(=O)[C@H]5CCN(C#N)C5)sc4C3)nn1)c1c(C)cc(C)n1[B-]2(F)F`, the viability at 1 µM is 104% (non-toxic) and the viability at 10 µM is 105% (non-toxic).

A word on the viability: it is a read-out of living cells in per cent, often relative to untreated cells.
